The results in this text go back to patent US20050267114A1, “Triazaspiro[5.5]undecane derivatives and drugs comprising the same as the active ingredient” (priority 2002, published 2005).

Usually IC50 stands for the point on the concentration scale where inhibition reaches its midpoint. Read a low IC50 as inhibition by little substance.

For the test, the target named is T1, human CCR5 (Homo sapiens, UniProt P51681).
T1 construct: expressed in transfected cells; host or cells: CHO-dhfr(-) cells stably transfected with plasmid pEF-BOS-bsr/hCCR5
The test is described as follows: Inhibition test on the binding of RANTES to CCR5 (RANTES-induced transient increase of Ca ion). The settings on record: human RANTES 10 nM; CCR5/CHO cell; Ca2+ transient increase. The test is classed as cell-based. How it is done: (1) Isolation of Human CCR5 Gene
Human placental cDNA was prepared using Marathon cDNA amplification kit (Clontech). PCR primers hCCR5Xbal-F1:
Using the human placental cDNA as the template and using Ex Taq (Takara), PCR reaction (2 minutes at 95° C.→(30 seconds at 95° C., 45 seconds at 60° C., 1 minute at 72° C.)×35 times) was carried out. The thus amplified PCR product was subjected to a 1% agarose gel electrophoresis, purified using QIAquick Gel Extraction Kit (QUIAGEN) and then digested with a restriction enzyme XbaI. The digested fragments were ligated to an expression vector pEF-BOS-bsr using DNA Ligation Kit Ver. 2 (Takara) and transformed into Escherichia coli DH5a. […]
The thus established human CCR5 stably over-expressing CHO cell (CCR5/CHO cell) was suspended in Ham's F-12 medium containing FBS (10%) and dispensed in […] portions into a 96 well plate. […] Transient increase in the intracellular Ca^2+ concentration induced by the human RANTES was measured using a Ca^2+ detector for 96 well use (Hamamatsu Photonics), and inhibition ratio (%) of the test compound was calculated by the following calculation formula. Inhibition ratio=(Ec−Ea)/Ec×100 • Ec: measured value of Ca^2+ transient increase by RANTES • Ea: measured value of Ca^2+ transient increase by RANTES when a test compound was added.

Where a name gives a salt, the structure may show the parent alone.

T1 sequence (P51681 whole entry): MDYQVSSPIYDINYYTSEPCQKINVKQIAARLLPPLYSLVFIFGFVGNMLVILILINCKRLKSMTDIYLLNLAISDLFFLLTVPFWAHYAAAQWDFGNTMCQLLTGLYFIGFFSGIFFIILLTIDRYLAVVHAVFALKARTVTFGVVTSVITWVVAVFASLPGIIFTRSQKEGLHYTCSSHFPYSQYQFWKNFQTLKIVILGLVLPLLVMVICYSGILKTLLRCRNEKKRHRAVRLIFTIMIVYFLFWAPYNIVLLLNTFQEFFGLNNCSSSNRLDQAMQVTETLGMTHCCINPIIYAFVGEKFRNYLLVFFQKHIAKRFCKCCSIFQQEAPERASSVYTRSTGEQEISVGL

Turning to `CCCCN1C(=O)[C@@H]([C@H](O)C(CC)CC)NC(=O)C12CCN(Cc1ccc(Cc3ccc(C(=O)NC)cc3Cl)cc1)CC2` [Example 3(179), (3R)-1-butyl-2,5-dioxo-3-((1R)-1-hydroxy-2-ethylbutyl)-9-(4-(4-methylaminocarbonyl-2-chlorophenylmethyl)phenylmethyl)-1,4,9-triazaspiro[5.5]undecane hydrochloride], the IC50 was found to be 10 nM.
